Laboratory results from patent US8987195B2 (priority 2012, dated 2015).
pEC50, pIC50: −log10 of the molar value. Where two headings read alike, the source gives them in different places.

Columns and labels:
[1] = test system: HCV genotype 1b replicon; assay: HCV replicon assay, genotype 1b replicon EC50; format: cell-based, Hepatitis C virus; settings: HCV replicon, genotype 1b, read-out: EC50 [gt-1b]
In short: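 Replicon cells (Neo^r, some luciferase:Neo^r fusion); G418 removed at plating; compound dilution series, 24-48 h. Readout: RNA by 32P-probe hybridization/protection or TaqMan, normalized to cyclophilin A RNA, or luciferase. EC50 vs DMSO control, 4-parameter fit.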

[2] = target: HCV NS3/4A protease genotype 1b (Hepatitis C virus genotype 1b, UniProt P26663); assay: HCV NS3/4A protease time-resolved fluorescence (TRF) assay, Ki against genotype 1b; format: biochemical; settings: IC50 [gt-1b], NS3/4A protease TRF assay, genotype 1b enzyme 0.2 nM
In short: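 Ki was converted from fitted IC50 using IC50=Ki(1+[S]/KM) and 25 nM substrate. Protease (genotype 1b 0.2 nM, A156T 0.4 nM, 3a 0.025 nM) and compound were pre-mixed 30 min in pH 7.5 HEPES/NaCl/glycerol/DTT buffer. Cleavage then proceeded 2.5 h at room temperature, detected by time-resolved europium fluorescence (340/615 nm).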

Row | Structure (SMILES) | pEC50 ([1]; Hepatitis C virus) | pIC50 [2] | pEC50 [1] | pEC50 ([1]; Hepatitis C virus, K+ salt) | pIC50 ([2]; K+ salt)
1 | COc1ccc2nc(C)c3c(c2n1)CC[C@]1(C[C@H]2C(=O)N[C@]4(C(=O)NS(=O)(=O)C5(C)CC5)C[C@H]4/C=C\CCCCC[C@H](NC(=O)OCC(C)C)C(=O)N2C1)O3 [Example 362, 2-methylpropyl [(2R,6S,12Z,13aS,14aR,16aS)-2′-methoxy-6′-methyl-14a-{[(1-methylcyclopropyl)sulfonyl]carbamoyl}-5,16-dioxo-1,5,6,7,8,9,9′,10,10′,11,13a,14,14a,15,16,16a-hexadecahydrospiro[cyclopropa[e]pyrrolo[1,2-a][1,4]diazacyclopentadecine-2,8′-pyrano[2,3-c][1,5]naphthyridin]-6-yl]carbamate] | 8.39 | 11.10 | – | – | –
2 | COc1ccc2nc(C)c3c(c2n1)CC[C@]1(C[C@H]2C(=O)N[C@]4(C(=O)NS(=O)(=O)C5(C)CC5)C[C@H]4/C=C\CCCCC[C@H](NC(=O)OC4CCCC4)C(=O)N2C1)O3 [Example 363, cyclopentyl [(2R,6S,12Z,13aS,14aR,16aS)-2′-methoxy-6′-methyl-14a-{[(1-methylcyclopropyl)sulfonyl]carbamoyl}-5,16-dioxo-1,5,6,7,8,9,9′,10,10′,11,13a,14,14a,15,16,16a-hexadecahydrospiro[cyclopropa[e]pyrrolo[1,2-a][1,4]diazacyclopentadecine-2,8′-pyrano[2,3-c][1,5]naphthyridin]-6-yl]carbamate] | 8.09 | 10.96 | – | – | –
3 | COc1ccc2nc(C)c3c(c2n1)CC[C@]1(C[C@H]2C(=O)N[C@]4(C(=O)NS(=O)(=O)C5(C)CC5)C[C@H]4/C=C\CCCCC[C@H](NC(=O)OC4(C)CC4)C(=O)N2C1)O3 [Example 364, 1-methylcyclopropyl [(2R,6S,12Z,13aS,14aR,16aS)-2′-methoxy-6′-methyl-14a-{[(1-methylcyclopropyl)sulfonyl]carbamoyl}-5,16-dioxo-1,5,6,7,8,9,9′,10,10′,11,13a,14,14a,15,16,16a-hexadecahydrospiro[cyclopropa[e]pyrrolo[1,2-a][1,4]diazacyclopentadecine-2,8′-pyrano[2,3-c][1,5]naphthyridin]-6-yl]carbamate] | 8.26 | 10.92 | – | – | –
4 | COc1ccc2nc(C)c3c(c2n1)CC[C@]1(C[C@H]2C(=O)N[C@]4(C(=O)NS(=O)(=O)C5(C)CC5)C[C@H]4/C=C\CCCCC[C@H](NC(=O)OC4(C)CCC4)C(=O)N2C1)O3 [Example 365, 1-methylcyclobutyl [(2R,6S,12Z,13aS,14aR,16aS)-2′-methoxy-6′-methyl-14a-{[(1-methylcyclopropyl)sulfonyl]carbamoyl}-5,16-dioxo-1,5,6,7,8,9,9′,10,10′,11,13a,14,14a,15,16,16a-hexadecahydrospiro[cyclopropa[e]pyrrolo[1,2-a][1,4]diazacyclopentadecine-2,8′-pyrano[2,3-c][1,5]naphthyridin]-6-yl]carbamate] | 8.31 | 10.70 | – | – | –
5 | COc1ccc2nc(C)c3c(c2c1)CC[C@]1(C[C@H]2C(=O)N[C@]4(C(=O)NS(=O)(=O)C5(C)CC5)C[C@H]4/C=C\CCCCC[C@H](NC(=O)OC(C(C)(C)C)C(F)(F)F)C(=O)N2C1)O3 (stereo partly drawn) [Example 366, 1,1,1-trifluoro-3,3-dimethylbutan-2-yl [(2R,6S,12Z,13aS,14aR,16aS)-9′-methoxy-5′-methyl-14a-{[(1-methylcyclopropyl)sulfonyl]carbamoyl}-5,16-dioxo-1,1′,2′,5,6,7,8,9,10,11,13a,14,14a,15,16,16a-hexadecahydrospiro[cyclopropa[e]pyrrolo[1,2-a][1,4]diazacyclopentadecine-2,3′-pyrano[2,3-c]quinolin]-6-yl]carbamate] | 8.19 | 10.64 | – | – | –
6 | COc1ccc2nc(C)c3c(c2c1)CC[C@]1(C[C@H]2C(=O)N[C@]4(C(=O)NS(=O)(=O)C5(C)CC5)C[C@H]4/C=C\CCCCC[C@H](NC(=O)OC(C(C)(C)C)C(F)(F)F)C(=O)N2C1)O3 (stereo partly drawn) [Example 367, 1,1,1-trifluoro-3,3-dimethylbutan-2-yl [(2R,6S,12Z,13aS,14aR,16aS)-9′-methoxy-5′-methyl-14a-{[(1-methylcyclopropyl)sulfonyl]carbamoyl}-5,16-dioxo-1,1′,2′,5,6,7,8,9,10,11,13a,14,14a,15,16,16a-hexadecahydrospiro[cyclopropa[e]pyrrolo[1,2-a][1,4]diazacyclopentadecine-2,3′-pyrano[2,3-c]quinolin]-6-yl]carbamate] | – | 10.52 | 8.44 | – | –
7 | CC(C)COC(=O)N[C@H]1CCCCC/C=C\[C@@H]2C[C@@]2(C(=O)NS(=O)(=O)C2(C)CC2)NC(=O)[C@@H]2C[C@]3(CCc4c(c(C(F)F)nc5ccc(Cl)cc45)O3)CN2C1=O [Example 368, 2-methylpropyl [(2R,6S,12Z,13aS,14aR,16aS)-9′-chloro-5′-(difluoromethyl)-14a-{[(1-methylcyclopropyl)sulfonyl]carbamoyl}-5,16-dioxo-1,1′,2′,5,6,7,8,9,10,11,13a,14,14a,15,16,16a-hexadecahydrospiro[cyclopropa[e]pyrrolo[1,2-a][1,4]diazacyclopentadecine-2,3′-pyrano[2,3-c]quinolin]-6-yl]carbamate] | 8.01 | 10.77 | – | – | –
8 | COc1ccc2nc(C)c3c(c2c1)[C@H](F)C[C@]1(C[C@H]2C(=O)N[C@]4(C(=O)NS(=O)(=O)C5(C)CC5)C[C@H]4/C=C\CCCCC[C@H](NC(=O)OCC(C)(C)C)C(=O)N2C1)O3 [Example 371, 2,2-dimethylpropyl [(1′R,2S,6S,12Z,13aS,14aR,16aS)-1′-fluoro-9′-methoxy-5′-methyl-14a-{[(1-methylcyclopropyl)sulfonyl]carbamoyl}-5,16-dioxo-1,1′,2′,5,6,7,8,9,10,11,13a,14,14a,15,16,16a-hexadecahydrospiro[cyclopropa[e]pyrrolo[1,2-a][1,4]diazacyclopentadecine-2,3′-pyrano[2,3-c]quinolin]-6-yl]carbamate] | – | – | – | 8.90 | 10.82
9 | COc1ccc2nc(C)c3c(c2c1)[C@H](F)C[C@]1(C[C@H]2C(=O)N[C@]4(C(=O)NS(=O)(=O)C5(C)CC5)C[C@H]4/C=C\CCCCC[C@H](NC(=O)OCC(C)C)C(=O)N2C1)O3 [Example 372, 2-methylpropyl [(1′R,2S,6S,12Z,13aS,14aR,16aS)-1′-fluoro-9′-methoxy-5′-methyl-14a-{[(1-methylcyclopropyl)sulfonyl]carbamoyl}-5,16-dioxo-1,1′,2′,5,6,7,8,9,10,11,13a,14,14a,15,16,16a-hexadecahydrospiro[cyclopropa[e]pyrrolo[1,2-a][1,4]diazacyclopentadecine-2,3′-pyrano[2,3-c]quinolin]-6-yl]carbamate] | – | – | – | 8.67 | 11.00
10 | COc1ccc2nc(C)c3c(c2c1)[C@H](F)C[C@]1(C[C@H]2C(=O)N[C@]4(C(=O)NS(=O)(=O)C5(C)CC5)C[C@H]4/C=C\CCCCC[C@H](NC(=O)OC4CCCC4)C(=O)N2C1)O3 [Example 373, cyclopentyl [(1′R,2S,6S,12Z,13aS,14aR,16aS)-1′-fluoro-9′-methoxy-5′-methyl-14a-{[(1-methylcyclopropyl)sulfonyl]carbamoyl}-5,16-dioxo-1,1′,2′,5,6,7,8,9,10,11,13a,14,14a,15,16,16a-hexadecahydrospiro[cyclopropa[e]pyrrolo[1,2-a][1,4]diazacyclopentadecine-2,3′-pyrano[2,3-c]quinolin]-6-yl]carbamate] | – | – | – | 8.57 | 10.96
